Data: article PMC9837035 (Nature Communications, 2023)
“And” between values parts separate entries of the source, which are not always exact repeats. Identical values can stand only once.

Columns and labels:
[1] = test system: BGLT3 RNA in HUDEP-2 cells; test: RT-qPCR of BGLT3 in HUDEP-2 cells; format: cell-based, human; conditions: relative to DMSO = 1, replicate values; for BGLT3 expression in HUDEP-2 cells: Sup.Fig.11a
Protocol: (§1) Total cellular RNA was prepared using the Tissue Total RNA Mini Kit (FAVORGEN), and cDNA was synthesized using ReverTra Ace Master Mix (TOYOBO). Expression of target genes was analyzed using THUNDERBIRD SYBR qPCR Mix (TOYOBO) on a CFX Connect Real Time System (Bio-Rad). The qPCR data were acquired on CFX Maestro (Bio-Rad). Primers are listed in Supplementary Table 10. GAPDH was used as a reference. Primers were purchased from INTEGRATED DNA TECHNOLOGIES or FASMAC.

[2] = test system: β- and γ-globin genes in HUDEP-2 cells; test: RT-qPCR of β- and γ-globin in HUDEP-2 cells; format: cell-based, human; conditions: single agents or combination; relative to DMSO = 1; replicate values
Protocol: as §1

[3] = test system: BGLT3-knockdown HUDEP-2 cells; test: RT-qPCR of BGLT3, β- and γ-globin in BGLT3-knockdown HUDEP-2 cells; format: cell-based, human; conditions: 1 μM, relative to shctrl DMSO = 1, replicate values
Protocol: as §1
Retroviral infection was used as previously described to establish cell lines stably expressing BGLT3 and transfected with the pCX4-pur vector, as well as knockdown cell lines transfected with the pSUPER vector[58]. Briefly, retroviruses were produced by transfecting PLAT-E cells with pCX4-pur-BGLT3 or pSUPER-ctrl, pSUPER-BGLT3, or pSUPER-G9a using 5 μg/mL polyethylenimine MAX (PEI MAX, Polysciences). Two days after transfection, the culture supernatant was collected and filtered through a 0.45-μm filter (Millipore) and used for infection with 8 μg/mL polybrene (Sigma). Forty-eight hours after infection, the infected cells were selected with 0.2 μg/mL puromycin (InvivoGen). The clonal puromycin-resistant cells were established via limiting dilution. The desired clones were confirmed by western blotting or qPCR.

[4] = test system: rat myoblast cell line H9c2; test: Cell viability assay (WST-8), H9c2; format: cell-based; conditions: control (0 μM) = 100
Protocol: (§2) A WST-8 (2-(2-methoxy-4-nitrophenyl)-3-(4-nitrophenyl)-5-(2,4-disulfophenyl)-2H-tetrazolium) assay using a Cell Counting Kit-8 (DOJINDO) was performed to measure cell viability using an EnSpire microplate reader (PerkinElmer).

mice = test: Mouse acute toxicity assay, survival; format: in vivo; conditions: intravenous, 2-week observation
Protocol: All animal studies were approved by the Institutional Committee for Animal Experiments of the Institute of Microbial Chemistry, and were performed in accordance with relevant guidelines and regulations to minimize animal suffering. Four-week-old female ICR mice were purchased from Charles River Breeding Laboratories (Yokohama, Japan) and maintained in a specific pathogen-free barrier facility. […] Samples were dissolved in saline containing 10% DMSO and 1% Tween 80 and injected intravenously into mice.

HUDEP-2 cells = test: Cell viability assay (WST-8), HUDEP-2; format: cell-based, human; conditions: control (0 μM) = 100
Protocol: as §2

G9a = target: T1, G9a (Homo sapiens, UniProt Q96KQ7); test: In vitro G9a methyltransferase assay (AlphaLISA-based); format: biochemical; design: purchased BPS Bioscience
T1 sequence (Q96KQ7 1-1210): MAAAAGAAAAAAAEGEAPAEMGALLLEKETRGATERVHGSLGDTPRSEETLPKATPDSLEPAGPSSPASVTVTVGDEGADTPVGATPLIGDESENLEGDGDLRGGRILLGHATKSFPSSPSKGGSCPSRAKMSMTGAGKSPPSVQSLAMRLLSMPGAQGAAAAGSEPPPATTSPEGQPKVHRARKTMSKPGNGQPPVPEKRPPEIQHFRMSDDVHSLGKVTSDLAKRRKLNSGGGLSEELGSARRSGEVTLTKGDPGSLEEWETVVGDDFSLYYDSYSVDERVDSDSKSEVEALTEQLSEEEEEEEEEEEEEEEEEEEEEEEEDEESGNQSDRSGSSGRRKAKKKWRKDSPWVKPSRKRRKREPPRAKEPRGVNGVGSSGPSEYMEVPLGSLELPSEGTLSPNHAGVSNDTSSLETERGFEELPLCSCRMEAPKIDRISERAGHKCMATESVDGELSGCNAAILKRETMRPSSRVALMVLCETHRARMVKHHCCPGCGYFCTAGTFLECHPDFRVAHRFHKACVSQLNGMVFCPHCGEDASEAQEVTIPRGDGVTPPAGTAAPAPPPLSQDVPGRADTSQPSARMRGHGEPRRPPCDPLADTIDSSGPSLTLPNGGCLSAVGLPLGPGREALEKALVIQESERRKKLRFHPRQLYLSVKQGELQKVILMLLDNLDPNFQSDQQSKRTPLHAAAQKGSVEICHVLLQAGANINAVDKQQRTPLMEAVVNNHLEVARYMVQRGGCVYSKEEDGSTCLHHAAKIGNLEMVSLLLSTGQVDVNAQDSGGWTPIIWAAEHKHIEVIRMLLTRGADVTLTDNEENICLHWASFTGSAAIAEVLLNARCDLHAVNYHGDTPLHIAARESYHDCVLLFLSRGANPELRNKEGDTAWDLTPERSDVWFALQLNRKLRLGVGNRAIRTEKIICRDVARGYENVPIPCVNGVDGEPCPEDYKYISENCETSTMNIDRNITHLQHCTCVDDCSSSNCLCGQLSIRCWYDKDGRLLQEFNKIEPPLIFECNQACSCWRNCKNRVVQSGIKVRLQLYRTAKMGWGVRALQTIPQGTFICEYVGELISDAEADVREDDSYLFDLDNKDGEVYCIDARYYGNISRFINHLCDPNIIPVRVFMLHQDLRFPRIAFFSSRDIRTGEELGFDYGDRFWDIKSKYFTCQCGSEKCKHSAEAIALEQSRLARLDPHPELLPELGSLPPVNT
Protocol: An amplified luminescence proximity homogeneous assay (ALPHA) was performed with a modified version of a previously described method. Recombinant G9a proteins (BPS Bioscience) were incubated with 15 μM S-adenosyl-methionine (Sigma) and 50 nM biotinylated histone H3 (1-21; AnaSpec) in the assay buffer (50 mM Tris-HCl (pH 9.0), 50 mM NaCl, 0.01% Tween-20, and 1 mM DTT). After incubation at room temperature for 1 h, AlphaLISA anti-H3K9me2 acceptor beads (final concentration 10 μg/mL, PerkinElmer, AL117C) and AlphaScreen streptavidin donor beads (final concentration 10 μg/mL, PerkinElmer, 6760002B) were added and incubated for an additional 1 h prior to detection of the alpha signal with an EnSpire Alpha plate reader (PerkinElmer). ALPHA profile was analyzed using Origin (OriginLab).

[5] = test system: Salmonella typhimurium TA98; test: Ames test, TA98
Protocol: (§3) The Salmonella mutagenicity assay was performed by pre-incubating the test compounds for 20 min with Salmonella typhimurium strains TA98 and TA100, with and without metabolic activation (S9 mixture).
(§4) After this time 2 mL of top agar was added to the mixture and poured on to a plate containing minimum agar. The plates were incubated at 37 °C for 49 h and the His ± revertant colonies were counted manually and automatically by a colony counter (Colony analyzer CA-11D systems, System science Co.,Ltd.). The influence of metabolic activation was tested by adding 500 μL of 10% S9 mixture. All experiments were performed in duplicate. […] DMSO served as the negative control (100 μL/plate). The mutagenic index (MI, the average number of revertants per plate divided by the average number of revertants per plate from the negative control) was also calculated for each dose. A sample was considered positive when the MI was equal to or greater than 2 for at least one of the tested doses.

[6] = test system: Salmonella typhimurium TA100; test: Ames test, TA100
Protocol: as §3, §4

[7] = G9a activity, AlphaLISA-based assay, mean of three experiments
[8] = Sup.Table1, three replicate values

Compound: Nc1ncn([C@H]2C[C@H](O)[C@@H](CO)O2)c(=O)n1 [decitabine]
- BGLT3 expression in HUDEP-2 cells [1]: 2.269 and 2.6404 and 2.1358
- BGLT3 expression in HUDEP-2 cells treated with RK-701 and decitabine ([1]; single agents or combination): 3.3143 and 2.772 and 4.351
- β-globin expression in HUDEP-2 cells treated with RK-701 and decitabine [2]: 0.9105 and 1.679 and 1.802
- γ-globin expression in HUDEP-2 cells treated with RK-701 and decitabine [2]: 5.299 and 8.189 and 8.892
- β-globin gene in BGLT3-knockdown HUDEP-2 cells ([3]; shBGLT3 #1): 0.735 and 0.7829 and 0.8722
- γ-globin gene in BGLT3-knockdown HUDEP-2 cells ([3]; shBGLT3 #1): 2.413 and 2.581 and 2.465
- β-globin gene in BGLT3-knockdown HUDEP-2 cells ([3]; shBGLT3 #2): 0.6218 and 0.5853 and 0.4869
- γ-globin gene in BGLT3-knockdown HUDEP-2 cells ([3]; shBGLT3 #2): 2.574 and 2.659 and 3.171
- β-globin gene in BGLT3-knockdown HUDEP-2 cells ([3]; shBGLT3 #3): 0.8092 and 0.8421 and 1.086
- γ-globin gene in BGLT3-knockdown HUDEP-2 cells ([3]; shBGLT3 #3): 1.425 and 1.467 and 1.465
- β-globin gene in BGLT3-knockdown HUDEP-2 cells ([3]; shctrl): 0.8786 and 0.8917 and 0.7285
- γ-globin gene in BGLT3-knockdown HUDEP-2 cells ([3]; shctrl): 8.583 and 10.749 and 7.48

Compound: COc1cc2c(cc1OCCCN1CCCC1)N=C(N)C21CCC1 [A-366]
- cell viability in H9c2 cells ([4]; 0.039 μM): 104.360 and 99.467 and 89.907
- cell viability in H9c2 cells ([4]; 0.156 μM): 95.640 and 83.067 and 81.211
- cell viability in H9c2 cells ([4]; 0.625 μM): 92.264 and 78.533 and 78.882
- cell viability in H9c2 cells ([4]; 2.5 μM): 78.059 and 64.000 and 71.429
- cell viability in H9c2 cells ([4]; 10.0 μM): 53.868 and 49.733 and 52.329
- Number of alive mice (mice; 0.1953125 mg/kg): 3/3
- Number of alive mice (mice; 0.390625 mg/kg): 3/3
- Number of alive mice (mice; 0.78125 mg/kg): 3/3
- Number of alive mice (mice; 1.5625 mg/kg): 0/3
- Number of alive mice (mice; 3.125 mg/kg): 0/3
- cell viability in HUDEP-2 cells (HUDEP-2 cells; 0.00457247 μM): 82.0673 and 97.2549 and 93.6968
- cell viability in HUDEP-2 cells (HUDEP-2 cells; 0.0137174 μM): 88.332 and 96 and 98.8075
- cell viability in HUDEP-2 cells (HUDEP-2 cells; 0.0411523 μM): 83.007 and 93.4902 and 87.9046
- cell viability in HUDEP-2 cells (HUDEP-2 cells; 0.123457 μM): 84.5732 and 96 and 89.6082
- cell viability in HUDEP-2 cells (HUDEP-2 cells; 0.37037 μM): 79.2482 and 92.549 and 93.6968
- cell viability in HUDEP-2 cells (HUDEP-2 cells; 1.11111 μM): 81.1276 and 90.6667 and 88.586
- cell viability in HUDEP-2 cells (HUDEP-2 cells; 3.33333 μM): 67.9718 and 80.3137 and 66.7802
- cell viability in HUDEP-2 cells (HUDEP-2 cells; 10 μM): 52.3101 and 64.9412 and 58.9438

Compound: CSCC[C@H](NC(=O)c1[nH]c2c(c1C)C(=O)CC(C)(C)C2)C(=O)Nc1ccccc1 [compound 9]
- IC50 (G9a; [7]): 0.3 µM
- IC50 (G9a; [8]): 0.299 µM and 0.291 µM and 0.316 µM

Compound: NC(=O)C(=Cc1ccc([N+](=O)[O-])o1)c1ccco1 [AF-2, 2-(2-furyl)-3-(5-nitro-2-furyl)acrylamide, reference compound]
- Number of reverants/plate ([5]; TA98, - S9, frameshift mutation, 0.1 μg/plate): 497 and 507
- Number of revertants/plate ([5]; TA98, -S9, 0.1 μg/plate, positive control): 502
- Number of reverants/plate ([6]; TA100, - S9, base pair substitution mutation, 0.01 μg/plate): 725 and 728
- Number of revertants/plate ([6]; TA100, -S9, 0.01 μg/plate, positive control): 727

Compound: COC(=O)c1ccc2nc([C@H](CCSC)NC(=O)c3[nH]c4c(c3C)C(=O)CC(C)(C)C4)[nH]c2c1 [compound 8]
- IC50 (G9a; [7]): 21.3 µM
- IC50 (G9a; [8]): 24.6 µM and 20.7 µM and 18.7 µM

Compound: Nc1ccccc1NC(=O)c1ccc(CNC(=O)OCc2cccnc2)cc1 [MS-275]
- BGLT3 expression in HUDEP-2 cells [1]: 14.3147 and 21.8274 and 19.7082
- β-globin gene in BGLT3-knockdown HUDEP-2 cells ([3]; shBGLT3 #1): 3.1513 and 3.12 and 3.5502
- γ-globin gene in BGLT3-knockdown HUDEP-2 cells ([3]; shBGLT3 #1): 20.155 and 19.0925 and 20.8632
- β-globin gene in BGLT3-knockdown HUDEP-2 cells ([3]; shBGLT3 #2): 2.766 and 2.148 and 2.288
- γ-globin gene in BGLT3-knockdown HUDEP-2 cells ([3]; shBGLT3 #2): 8.523 and 7.607 and 25.7598
- β-globin gene in BGLT3-knockdown HUDEP-2 cells ([3]; shBGLT3 #3): 1.145 and 1.259 and 1.535
- γ-globin gene in BGLT3-knockdown HUDEP-2 cells ([3]; shBGLT3 #3): 19.0595 and 19.9736 and 20.0664
- β-globin gene in BGLT3-knockdown HUDEP-2 cells ([3]; shctrl): 4.7699 and 6.2041 and 4.688
- γ-globin gene in BGLT3-knockdown HUDEP-2 cells ([3]; shctrl): 47.2575 and 62.7038 and 44.6998
